Test results taken from PubChem BioAssay (NCI).
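These data come from cells grown in 96-well plates and exposed to compound for 48 hours at five concentrations. The concentration for full growth arrest is given as TGI.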

These molecules were tested on DLD-1 colon (assay: NCI-60 cell line screen, 48 h).

Q: How did the TGI turn out when `CN=NN(C)C(=O)NC` was run?
A: > 100 µM

Q: Which TGI does the source give for `N#CC(NNC(=O)Cc1ccccc1)c1ccccc1O` (stereo not given) here?
A: > 100 µM

The molecules below were run on SK-MEL-5 melanoma (assay: NCI-60 cell line screen, 48 h).

Q: How did the TGI turn out when `CN(Nc1cc(=O)[nH]c(=O)[nH]1)c1ccccc1` was run?
A: > 100 µM

Q: How did the TGI turn out when `Cc1ccc(S(=O)(=O)C2=Cc3ccc(C(F)(F)F)cc3C2(O)c2cccc(C(F)(F)F)c2)cc1` (stereo not given) was run?
A: 3.35 µM

Q: Which TGI does the source give for `CC(C)=CCS(=O)c1ccccc1NC1=CC(=O)CC(C)(C)C1` (stereo not given) here?
A: > 100 µM

Q: `Cc1cn2c(=O)c3ccccc3nc2s1` was tested. Which TGI did it give?
A: > 100 µM

Q: With `CN=NN(C)C(=O)NC` as the molecule, how does the TGI read?
A: > 100 µM

Q: How did the TGI turn out when `N#CC(NNC(=O)Cc1ccccc1)c1ccccc1O` (stereo not given) was run?
A: > 72.2 µM

Q: `COc1cccc(OC)c1/C=C1\OC(=O)c2cccc(OC)c21` was tested. Which TGI did it give?
A: > 100 µM

The molecules below were run on MDA-MB-231 breast (assay: NCI-60 cell line screen, 48 h).

Q: `CN(Nc1cc(=O)[nH]c(=O)[nH]1)c1ccccc1` was tested. Which TGI did it give?
A: > 100 µM

Q: `Cc1ccc(S(=O)(=O)C2=Cc3ccc(C(F)(F)F)cc3C2(O)c2cccc(C(F)(F)F)c2)cc1` (stereo not given) was tested. Which TGI did it give?
A: 5.06 µM

Q: For `CC(C)=CCS(=O)c1ccccc1NC1=CC(=O)CC(C)(C)C1` (stereo not given), which TGI is on record?
A: > 100 µM

Q: Which TGI does the source give for `N#CC(NNC(=O)Cc1ccccc1)c1ccccc1O` (stereo not given) here?
A: > 72 µM

Q: Which TGI does the source give for `COc1cccc(OC)c1/C=C1\OC(=O)c2cccc(OC)c21` here?
A: > 100 µM

These molecules were tested on OVCAR-8 ovarian (assay: NCI-60 cell line screen, 48 h).

Q: With `CN(Nc1cc(=O)[nH]c(=O)[nH]1)c1ccccc1` as the molecule, how does the TGI read?
A: > 100 µM

Q: How did the TGI turn out when `Cc1ccc(S(=O)(=O)C2=Cc3ccc(C(F)(F)F)cc3C2(O)c2cccc(C(F)(F)F)c2)cc1` (stereo not given) was run?
A: 4.44 µM

Q: `CC(C)=CCS(=O)c1ccccc1NC1=CC(=O)CC(C)(C)C1` (stereo not given) was tested. Which TGI did it give?
A: > 100 µM

Q: `Cc1cn2c(=O)c3ccccc3nc2s1` was tested. Which TGI did it give?
A: > 100 µM

Q: For `CN=NN(C)C(=O)NC`, which TGI is on record?
A: > 100 µM

Q: `N#CC(NNC(=O)Cc1ccccc1)c1ccccc1O` (stereo not given) was tested. Which TGI did it give?
A: 99.2 µM

Q: Which TGI does the source give for `COc1cccc(OC)c1/C=C1\OC(=O)c2cccc(OC)c21` here?
A: > 100 µM

What follows are molecules tested on SK-MEL-2 melanoma (assay: NCI-60 cell line screen, 48 h).

Q: Which TGI does the source give for `CN(Nc1cc(=O)[nH]c(=O)[nH]1)c1ccccc1` here?
A: > 100 µM

Q: With `Cc1ccc(S(=O)(=O)C2=Cc3ccc(C(F)(F)F)cc3C2(O)c2cccc(C(F)(F)F)c2)cc1` (stereo not given) as the molecule, how does the TGI read?
A: 3.57 µM

Q: Which TGI does the source give for `CC(C)=CCS(=O)c1ccccc1NC1=CC(=O)CC(C)(C)C1` (stereo not given) here?
A: > 100 µM

Q: For `Cc1cn2c(=O)c3ccccc3nc2s1`, which TGI is on record?
A: > 100 µM

Q: With `CN=NN(C)C(=O)NC` as the molecule, how does the TGI read?
A: > 100 µM

Q: With `N#CC(NNC(=O)Cc1ccccc1)c1ccccc1O` (stereo not given) as the molecule, how does the TGI read?
A: > 100 µM

Q: `COc1cccc(OC)c1/C=C1\OC(=O)c2cccc(OC)c21` was tested. Which TGI did it give?
A: > 30.1 µM

These molecules were tested on M19-MEL melanoma (assay: NCI-60 cell line screen, 48 h).

Q: `Cc1cn2c(=O)c3ccccc3nc2s1` was tested. Which TGI did it give?
A: > 100 µM

Q: `CN=NN(C)C(=O)NC` was tested. Which TGI did it give?
A: > 100 µM

Q: With `N#CC(NNC(=O)Cc1ccccc1)c1ccccc1O` (stereo not given) as the molecule, how does the TGI read?
A: 27 µM

The molecules below were run on HOP-92 NSCLC (assay: NCI-60 cell line screen, 48 h).

Q: `CN(Nc1cc(=O)[nH]c(=O)[nH]1)c1ccccc1` was tested. Which TGI did it give?
A: > 100 µM

Q: Which TGI does the source give for `Cc1ccc(S(=O)(=O)C2=Cc3ccc(C(F)(F)F)cc3C2(O)c2cccc(C(F)(F)F)c2)cc1` (stereo not given) here?
A: 4.17 µM

Q: How did the TGI turn out when `CC(C)=CCS(=O)c1ccccc1NC1=CC(=O)CC(C)(C)C1` (stereo not given) was run?
A: > 100 µM

Q: For `Cc1cn2c(=O)c3ccccc3nc2s1`, which TGI is on record?
A: > 100 µM

Q: How did the TGI turn out when `CN=NN(C)C(=O)NC` was run?
A: > 100 µM

Q: Which TGI does the source give for `N#CC(NNC(=O)Cc1ccccc1)c1ccccc1O` (stereo not given) here?
A: > 92.1 µM

Q: How did the TGI turn out when `COc1cccc(OC)c1/C=C1\OC(=O)c2cccc(OC)c21` was run?
A: > 63 µM

These molecules were tested on HCT-116 colon (assay: NCI-60 cell line screen, 48 h).

Q: How did the TGI turn out when `CN(Nc1cc(=O)[nH]c(=O)[nH]1)c1ccccc1` was run?
A: > 100 µM

Q: `Cc1ccc(S(=O)(=O)C2=Cc3ccc(C(F)(F)F)cc3C2(O)c2cccc(C(F)(F)F)c2)cc1` (stereo not given) was tested. Which TGI did it give?
A: 3.03 µM

Q: For `CC(C)=CCS(=O)c1ccccc1NC1=CC(=O)CC(C)(C)C1` (stereo not given), which TGI is on record?
A: > 100 µM

Q: Which TGI does the source give for `Cc1cn2c(=O)c3ccccc3nc2s1` here?
A: > 100 µM

Q: For `CN=NN(C)C(=O)NC`, which TGI is on record?
A: > 100 µM

Q: With `N#CC(NNC(=O)Cc1ccccc1)c1ccccc1O` (stereo not given) as the molecule, how does the TGI read?
A: > 100 µM

Q: `COc1cccc(OC)c1/C=C1\OC(=O)c2cccc(OC)c21` was tested. Which TGI did it give?
A: > 100 µM

The molecules below were run on MCF7 breast (assay: NCI-60 cell line screen, 48 h).

Q: For `CN(Nc1cc(=O)[nH]c(=O)[nH]1)c1ccccc1`, which TGI is on record?
A: > 100 µM

Q: Which TGI does the source give for `Cc1ccc(S(=O)(=O)C2=Cc3ccc(C(F)(F)F)cc3C2(O)c2cccc(C(F)(F)F)c2)cc1` (stereo not given) here?
A: 4.86 µM

Q: How did the TGI turn out when `CC(C)=CCS(=O)c1ccccc1NC1=CC(=O)CC(C)(C)C1` (stereo not given) was run?
A: > 100 µM

Q: With `N#CC(NNC(=O)Cc1ccccc1)c1ccccc1O` (stereo not given) as the molecule, how does the TGI read?
A: > 89.5 µM

Q: For `COc1cccc(OC)c1/C=C1\OC(=O)c2cccc(OC)c21`, which TGI is on record?
A: > 100 µM
